Reference: patent publication US9593108B2, “Compounds and methods for antiviral treatment” (PTC Therapeutics, Inc., priority 2009, dated 2017)

What was measured:
[1] = system: HCV replicon RNA (GenBank Accession No. AJ242654); assay: HCV Replicon Assay (replicon RNA reduction and/or Fluc reporter signal); assay type: cell-based, Hepatitis C virus; details: Hepatitis C virus, 72 h, replicon-containing cells cultured with test compound for up to 3 days
Method in brief: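 IC50 values mostly reflect the drop in replicon RNA, though Fluc reporter signal may also be used. Compound incubated with cells carrying the bicistronic replicon for as long as 3 days; interferon served as positive control.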

Cc1cnc2c(C#N)c(-c3ncc(S(=O)(=O)NC(C)C)cn3)n(C3CCC3)c2c1 [Cpd 214, 2-(3-cyano-1-cyclobutyl-6-methyl-1H-pyrrolo[3,2-b]pyridin-2-yl)-N-(propan-2-yl)pyrimidine-5-sulfonamide]
IC50 [1]: < 500 nM | melting point: 278 to 280 °C

Cc1cnc2c(C#N)c(-c3ncc(S(=O)(=O)N[C@@H](C)C(F)(F)F)cn3)n(C3CCC3)c2c1 [Cpd 215, 2-(3-cyano-1-cyclobutyl-6-methyl-1H-pyrrolo[3,2-b]pyridin-2-yl)-N-[(2S)-1,1,1-trifluoropropan-2-yl]pyrimidine-5-sulfonamide]
IC50 [1]: 500 to 2000 nM | melting point: 268 to 269 °C

Cc1cnc2c(C#N)c(-c3ccc(S(=O)(=O)N[C@@H](C)C(F)(F)F)cc3)n(C3CCC3)c2c1 [Cpd 216, 4-(3-cyano-1-cyclobutyl-6-methyl-1H-pyrrolo[3,2-b]pyridin-2-yl)-N-[(2S)-1,1,1-trifluoropropan-2-yl]benzenesulfonamide]
IC50 [1]: 500 to 2000 nM | melting point: 245 to 246 °C

Cc1cnc2c(C#N)c(-c3ccc(S(=O)(=O)N[C@H](C)C(F)(F)F)cc3)n(C3CCC3)c2c1 [Cpd 217, 4-(3-cyano-1-cyclobutyl-6-methyl-1H-pyrrolo[3,2-b]pyridin-2-yl)-N-[(2R)-1,1,1-trifluoropropan-2-yl]benzenesulfonamide]
IC50 [1]: 2000 to 5000 nM | melting point: 252 to 253 °C

CC(C)Oc1cnc2c(c1)c(C#N)c(-c1ccc(S(=O)(=O)N[C@@H](C)C(F)(F)F)cn1)n2C1CCC1 [Cpd 218, 6-[3-cyano-1-cyclobutyl-5-(propan-2-yloxy)-1H-pyrrolo[2,3-b]pyridin-2-yl]-N-[(2S)-1,1,1-trifluoropropan-2-yl]pyridine-3-sulfonamide]
IC50 [1]: < 500 nM | melting point: 168 to 169 °C

CCc1cc2c(C#N)c(-c3ccc(S(=O)(=O)N[C@@H](C)C(F)(F)F)cc3)n(C3CCC3)c2cn1 [Cpd 219, 4-(3-cyano-1-cyclobutyl-5-ethyl-1H-pyrrolo[2,3-c]pyridin-2-yl)-N-[(2S)-1,1,1-trifluoropropan-2-yl]benzenesulfonamide]
IC50 [1]: < 500 nM | melting point: 200 to 203 °C

CCc1cc2c(C#N)c(-c3ccc(NS(=O)(=O)C(C)C)cc3)n(C3CCC3)c2cn1 [Cpd 220, N-[4-(3-cyano-1-cyclobutyl-5-ethyl-1H-pyrrolo[2,3-c]pyridin-2-yl)phenyl]propane-2-sulfonamide]
IC50 [1]: < 500 nM | melting point: 160 to 165 °C

C[C@H](NS(=O)(=O)c1ccc(-c2c(C#N)c3cccnc3n2C2CCCC2)nc1)C(F)(F)F [Cpd 221, 6-(3-cyano-1-cyclopentyl-1H-pyrrolo[2,3-b]pyridin-2-yl)-N-[(2S)-1,1,1-trifluoropropan-2-yl]pyridine-3-sulfonamide]
IC50 [1]: < 500 nM | melting point: 157 to 159 °C

C[C@H](NS(=O)(=O)c1ccc(-c2c(C#N)c3cc(C4CC4)ncc3n2C2CCC2)nc1)C(F)(F)F [Cpd 223, 6-(3-cyano-1-cyclobutyl-5-cyclopropyl-1H-pyrrolo[2,3-c]pyridin-2-yl)-N-[(2S)-1,1,1-trifluoropropan-2-yl]pyridine-3-sulfonamide]
IC50 [1]: 500 to 2000 nM | melting point: 200 to 205 °C

C[C@H](NS(=O)(=O)c1ccc(-c2c(C#N)c3cc(C4CC4)ncc3n2C2CCC2)cc1)C(F)(F)F [Cpd 224, 4-(3-cyano-1-cyclobutyl-5-cyclopropyl-1H-pyrrolo[2,3-c]pyridin-2-yl)-N-[(2S)-1,1,1-trifluoropropan-2-yl]benzenesulfonamide]
IC50 [1]: < 500 nM | melting point: 190 to 195 °C

COc1cnc2c(c1)c(C(N)=O)c(-c1ccc(S(=O)(=O)N[C@@H](C)C(F)(F)F)cn1)n2C1CCC1 [Cpd 226, 1-cyclobutyl-5-methoxy-2-(5-{[(2S)-1,1,1-trifluoropropan-2-yl]sulfamoyl}pyridin-2-yl)-1H-pyrrolo[2,3-b]pyridine-3-carboxamide]
IC50 [1]: < 500 nM | melting point: 233 to 235 °C

C[C@H](NS(=O)(=O)c1ccc(-c2c(C#N)c3cc(C(F)(F)F)cnc3n2C2CCC2)nc1)C(F)(F)F [Cpd 227, 6-[3-cyano-1-cyclobutyl-5-(trifluoromethyl)-1H-pyrrolo[2,3-b]pyridin-2-yl]-N-[(2S)-1,1,1-trifluoropropan-2-yl]pyridine-3-sulfonamide]
IC50 [1]: < 500 nM | melting point: 183 to 185 °C

C[C@@H](NS(=O)(=O)c1ccc(-c2c(C#N)c3cc(C(F)(F)F)cnc3n2C2CCC2)nc1)C(F)(F)F [Cpd 228, 6-[3-cyano-1-cyclobutyl-5-(trifluoromethyl)-1H-pyrrolo[2,3-b]pyridin-2-yl]-N-[(2R)-1,1,1-trifluoropropan-2-yl]pyridine-3-sulfonamide]
IC50 [1]: < 500 nM | melting point: 190 to 192 °C

C[C@H](NS(=O)(=O)c1ccc(-c2c(C#N)c3cc(C(F)(F)F)cnc3n2C2CCCC2)nc1)C(F)(F)F [Cpd 229, 6-[3-cyano-1-cyclopentyl-5-(trifluoromethyl)-1H-pyrrolo[2,3-b]pyridin-2-yl]-N-[(2S)-1,1,1-trifluoropropan-2-yl]pyridine-3-sulfonamide]
IC50 [1]: < 500 nM | melting point: 205 to 207 °C

C[C@@H](NS(=O)(=O)c1ccc(-c2c(C#N)c3cc(C(F)(F)F)cnc3n2C2CCCC2)nc1)C(F)(F)F [Cpd 230, 6-[3-cyano-1-cyclopentyl-5-(trifluoromethyl)-1H-pyrrolo[2,3-b]pyridin-2-yl]-N-[(2R)-1,1,1-trifluoropropan-2-yl]pyridine-3-sulfonamide]
IC50 [1]: < 500 nM | melting point: 208 to 210 °C

CC[C@H](NS(=O)(=O)c1ccc(-c2c(C#N)c3cc(OC)cnc3n2C2CCC2)nc1)C(F)(F)F [Cpd 232, 6-(3-cyano-1-cyclobutyl-5-methoxy-1H-pyrrolo[2,3-b]pyridin-2-yl)-N-[(2S)-1,1,1-trifluorobutan-2-yl]pyridine-3-sulfonamide]
IC50 [1]: < 500 nM | melting point: 186 to 191 °C

CC[C@H](NS(=O)(=O)c1ccc(-c2c(C#N)c3cc(Cl)cnc3n2C2CCCC2)nc1)C(F)(F)F [Cpd 233, 6-(5-chloro-3-cyano-1-cyclopentyl-1H-pyrrolo[2,3-b]pyridin-2-yl)-N-[(2S)-1,1,1-trifluorobutan-2-yl]pyridine-3-sulfonamide]
IC50 [1]: < 500 nM | melting point: 180 to 185 °C

C[C@H](NS(=O)(=O)c1ccc(-c2c(C#N)c3ncc(Cl)cc3n2C2CCC2)nc1)C(F)(F)F [Cpd 234, 6-(6-chloro-3-cyano-1-cyclobutyl-1H-pyrrolo[3,2-b]pyridin-2-yl)-N-[(2S)-1,1,1-trifluoropropan-2-yl]pyridine-3-sulfonamide]
IC50 [1]: < 500 nM | melting point: 201 to 205 °C

C[C@H](NS(=O)(=O)c1ccc(-c2c(C#N)c3ncc(Cl)cc3n2C2CCC2)cc1)C(F)(F)F [Cpd 235, 4-(6-chloro-3-cyano-1-cyclobutyl-1H-pyrrolo[3,2-b]pyridin-2-yl)-N-[(2S)-1,1,1-trifluoropropan-2-yl]benzenesulfonamide]
IC50 [1]: 500 to 2000 nM | melting point: 205 to 210 °C

COc1cnc2c(c1)c(C#N)c(-c1ccc(S(=O)(=O)N[C@@H](C)C(F)(F)F)c[n+]1[O-])n2C1CCC1 [Cpd 236, 6-(3-cyano-1-cyclobutyl-5-methoxy-1H-pyrrolo[2,3-b]pyridin-2-yl)-N-[(2S)-1,1,1-trifluoropropan-2-yl]pyridine-3-sulfonamide 1-oxide]
IC50 [1]: 2000 to 5000 nM | melting point: 155 to 157 °C

C[C@H](NS(=O)(=O)c1ccc(-c2c(C#N)c3cc(-c4cccs4)cnc3n2C2CCC2)nc1)C(F)(F)F [Cpd 237, 6-[3-cyano-1-cyclobutyl-5-(thiophen-2-yl)-1H-pyrrolo[2,3-b]pyridin-2-yl]-N-[(2S)-1,1,1-trifluoropropan-2-yl]pyridine-3-sulfonamide]
IC50 [1]: 2000 to 5000 nM | melting point: 206 to 208 °C

C[C@@H](NS(=O)(=O)c1ccc(-c2c(C#N)c3cc(-c4cccs4)cnc3n2C2CCC2)nc1)C(F)(F)F [Cpd 238, 6-[3-cyano-1-cyclobutyl-5-(thiophen-2-yl)-1H-pyrrolo[2,3-b]pyridin-2-yl]-N-[(2R)-1,1,1-trifluoropropan-2-yl]pyridine-3-sulfonamide]
IC50 [1]: 2000 to 5000 nM | melting point: 198 to 199 °C

C[C@H](NS(=O)(=O)c1ccc(-c2c(C#N)c3cc(N4CCCC4)cnc3n2C2CCC2)nc1)C(F)(F)F [Cpd 239, 6-[3-cyano-1-cyclobutyl-5-(pyrrolidin-1-yl)-1H-pyrrolo[2,3-b]pyridin-2-yl]-N-[(2S)-1,1,1-trifluoropropan-2-yl]pyridine-3-sulfonamide]
IC50 [1]: 500 to 2000 nM | melting point: 207 to 209 °C

C[C@@H](NS(=O)(=O)c1ccc(-c2c(C#N)c3cc(N4CCCC4)cnc3n2C2CCC2)nc1)C(F)(F)F [Cpd 240, 6-[3-cyano-1-cyclobutyl-5-(pyrrolidin-1-yl)-1H-pyrrolo[2,3-b]pyridin-2-yl]-N-[(2R)-1,1,1-trifluoropropan-2-yl]pyridine-3-sulfonamide]
IC50 [1]: 500 to 2000 nM | melting point: 207 to 209 °C

COc1cc2c(C#N)c(-c3ccc(S(=O)(=O)N[C@@H](C)C(F)(F)F)cn3)n(C3CCC3)c2nc1C [Cpd 242, 6-(3-cyano-1-cyclobutyl-5-methoxy-6-methyl-1H-pyrrolo[2,3-b]pyridin-2-yl)-N-[(2S)-1,1,1-trifluoropropan-2-yl]pyridine-3-sulfonamide]
IC50 [1]: < 500 nM | melting point: 175 to 177 °C

COc1cc2c(C#N)c(-c3ccc(S(=O)(=O)N[C@H](C)C(F)(F)F)cn3)n(C3CCC3)c2nc1C [Cpd 243, 6-(3-cyano-1-cyclobutyl-5-methoxy-6-methyl-1H-pyrrolo[2,3-b]pyridin-2-yl)-N-[(2R)-1,1,1-trifluoropropan-2-yl]pyridine-3-sulfonamide]
IC50 [1]: 2000 to 5000 nM | melting point: 175 to 177 °C

CC(C)NS(=O)(=O)c1ccc(-c2c(C#N)c3cc(C(F)(F)F)cnc3n2C2CCC2)nc1 [Cpd 244, 6-[3-cyano-1-cyclobutyl-5-(trifluoromethyl)-1H-pyrrolo[2,3-b]pyridin-2-yl]-N-(propan-2-yl)pyridine-3-sulfonamide]
IC50 [1]: < 500 nM | melting point: 186 to 187 °C
